Results from US12662491B2 (Redona Therapeutics, Inc., priority 2020, dated 2026).

Target: T1, Zcchc11 enzyme (Homo sapiens, UniProt Q5TAX3)
T1 construct: made in house; host or cells: HEK293 cells (Zcchc11); E. coli Rosetta II (LIN28A)
T1 sequence (Q5TAX3 212-1420): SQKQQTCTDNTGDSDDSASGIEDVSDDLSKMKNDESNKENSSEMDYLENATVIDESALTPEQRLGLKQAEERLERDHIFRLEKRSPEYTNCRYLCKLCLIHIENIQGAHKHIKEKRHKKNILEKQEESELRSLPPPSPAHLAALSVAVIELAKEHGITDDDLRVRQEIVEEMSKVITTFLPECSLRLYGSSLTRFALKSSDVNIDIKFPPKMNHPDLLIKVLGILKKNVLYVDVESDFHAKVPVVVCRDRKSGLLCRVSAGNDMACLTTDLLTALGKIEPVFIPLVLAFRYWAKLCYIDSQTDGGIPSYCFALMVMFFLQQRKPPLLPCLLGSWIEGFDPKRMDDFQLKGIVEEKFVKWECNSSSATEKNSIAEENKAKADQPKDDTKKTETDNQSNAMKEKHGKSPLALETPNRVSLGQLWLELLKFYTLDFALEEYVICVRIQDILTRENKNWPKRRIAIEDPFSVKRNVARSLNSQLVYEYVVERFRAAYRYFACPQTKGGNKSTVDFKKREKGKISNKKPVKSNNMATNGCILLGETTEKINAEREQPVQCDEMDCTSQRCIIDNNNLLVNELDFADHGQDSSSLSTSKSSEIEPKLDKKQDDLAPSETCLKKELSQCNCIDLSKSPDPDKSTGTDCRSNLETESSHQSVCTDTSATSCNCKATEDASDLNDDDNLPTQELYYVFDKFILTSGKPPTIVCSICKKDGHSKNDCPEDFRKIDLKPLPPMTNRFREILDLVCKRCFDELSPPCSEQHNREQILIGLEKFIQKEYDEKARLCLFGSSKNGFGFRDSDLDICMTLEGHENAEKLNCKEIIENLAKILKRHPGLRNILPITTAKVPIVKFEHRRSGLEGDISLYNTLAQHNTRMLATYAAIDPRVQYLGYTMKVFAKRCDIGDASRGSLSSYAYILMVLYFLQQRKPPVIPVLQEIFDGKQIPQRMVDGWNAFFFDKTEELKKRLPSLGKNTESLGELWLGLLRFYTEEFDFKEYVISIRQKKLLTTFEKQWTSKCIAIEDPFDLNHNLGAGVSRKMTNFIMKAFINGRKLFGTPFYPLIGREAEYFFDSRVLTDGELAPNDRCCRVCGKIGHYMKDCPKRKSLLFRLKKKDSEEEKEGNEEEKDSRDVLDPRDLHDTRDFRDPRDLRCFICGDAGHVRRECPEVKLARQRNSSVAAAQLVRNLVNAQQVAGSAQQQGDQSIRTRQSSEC
Assay: TUTase assay (Zcchc11 assay, Lin28a-dependent polyuridylation of pre-let-7)
Format: biochemical
Details: LIN28A 10 nM, Zcchc11 0.2 nM, 5′-fluorescein pre-let-7 miRNA 2 nM, UTP 5 uM, room temperature, 30 minutes pre-incubation; read-out: Potency Lin28a-dep Z11 IC50
How it was run: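 Potency is measured as inhibition of LIN28A-driven U-tail addition to 2 nM pre-let-7 by 0.2 nM HEK293-derived Zcchc11 fragment with 5 uM UTP at room temperature. Tail growth appears as fluorescein quenching by an annealing rhodamine-A20 probe.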

SMILES | IC50
Cc1c(F)c(N2CCC[C@@H]2COc2ccccn2)cc2c1c(=O)c(C(=O)O)cn2C1CC1 [Example 1, (R)-1-cyclopropyl-6-fluoro-5-methyl-4-oxo-7-(2-((pyridin-2-yloxy)methyl)pyrrolidin-1-yl)-1,4-dihydroquinoline-3-carboxylic acid] | > 50000 nM
O=C(O)c1cn(-c2ncccn2)c2cc(N3CCC[C@@H]3COc3ccccn3)c(Cl)cc2c1=O [Example 2, (R)-6-chloro-4-oxo-7-(2-((pyridin-2-yloxy)methyl)pyrrolidin-1-yl)-1-(pyrimidin-2-yl)-1,4-dihydroquinoline-3-carboxylic acid] | 1000 to 10000 nM
COc1c(N2CCC[C@@H]2COc2ccccn2)c(F)cc2c(=O)c(C(=O)O)cn(C3CC3)c12 [Example 3, (R)-1-cyclopropyl-6-fluoro-8-methoxy-4-oxo-7-(2-((pyridin-2-yloxy)methyl)pyrrolidin-1-yl)-1,4-dihydroquinoline-3-carboxylic acid] | > 50000 nM
O=C(O)c1cn(-c2ccccc2)c2cc(N3CCC[C@@H]3COc3ccccc3)c(F)cc2c1=O [Example 4, (R)-6-fluoro-4-oxo-7-(2-(phenoxymethyl)pyrrolidin-1-yl)-1-phenyl-1,4-dihydroquinoline-3-carboxylic acid] | > 50000 nM
CC1(n2cc(C(=O)O)c(=O)c3cc(Cl)c(N4CCC[C@@H]4COc4ncccc4Cl)c(F)c32)CC1 [Example 9, (R)-6-chloro-7-(2-(((3-chloropyridin-2-yl)oxy)methyl)pyrrolidin-1-yl)-8-fluoro-1-(1-methylcyclopropyl)-4-oxo-1,4-dihydroquinoline-3-carboxylic acid] | 1000 to 10000 nM
O=C(O)c1cn(-c2ccc(O)cc2)c2cc(N3CCC[C@@H]3Cn3ccc4ncccc43)c(F)cc2c1=O [Example 11, (R)-7-(2-((1H-pyrrolo[3,2-b]pyridin-1-yl)methyl)pyrroledin-1-yl)-6-fluoro-1-(4-hydroxyphenyl)-4-oxo-1,4-dihydroquinoline-3-carboxylic acid] | ≤ 1000 nM
O=C(O)c1cn(-c2ccc(O)cc2)c2cc(N3CCC[C@@H]3COc3cc4[nH]ccc4cn3)c(F)cc2c1=O [Example 12, (R)-7-(2-(((1H-pyrrolo[3,2-c]pyridine-6-yl)oxy)methyl)pyrrolidin-1-yl)-6-fluoro-1-(4-hydroxyphenyl)-4-oxo-1,4-dihydroquinoline-3-carboxylic acid] | ≤ 1000 nM
Cc1cccnc1OC[C@H]1CCCN1c1cc2c(cc1F)c(=O)c(C(=O)O)cn2-c1ccc(N)nc1 [Example 13, (R)-1-(6-aminopyridin-3-yl)-6-fluoro-7-(2-(((3-methylpyridin-2-yl)oxy)methyl)pyrrolidin-1-yl)-4-oxo-1,4-dihydroquinoline-3-carboxylic acid] | ≤ 1000 nM
Cc1cccnc1OC[C@H]1CCCN1c1cc2c(cc1F)c(=O)c(C(=O)O)cn2C1CCOCC1 [Example 14, 6-fluoro-7-[(2R)-2-[[(3-methylpyridin-2-yl)oxy]methyl]pyrrolidin-1-yl]-1-(oxan-4-yl)-4-oxoquinoline-3-carboxylic acid] | ≤ 1000 nM
Cc1cccnc1OC[C@H]1CCCN1c1cc2c(cc1F)c(=O)c(C(=O)O)cn2-c1cnccn1 [Example 15, (R)-6-fluoro-7-(2-(((3-methylpyridin-2-yl)oxy)methyl)pyrrolidin-1-yl)-4-oxo-1-(pyrazin-2-yl)-1,4-dihydroquinoline-3-carboxylic acid] | ≤ 1000 nM

More lines, now with the values ahead:

IC50 | SMILES
≤ 1000 nM | Cc1cccnc1OC[C@H]1CCCN1c1cc2c(cc1F)c(=O)c(C(=O)O)cn2-c1ccccc1 [Example 5, (R)-6-fluoro-7-(2-(((3-methylpyridin-2-yl)oxy)methyl)pyrrolidin-1-yl)-4-oxo-1-phenyl-1,4-dihydroquinoline-3-carboxylic acid]
> 50000 nM | CCc1cccnc1OC[C@H]1CCCN1c1cc2c(cc1F)c(=O)c(C(=O)O)cn2-c1ccccc1 [Example 6, (R)-7-(2-(((3-ethylpyridin-2-yl)oxy)methyl)pyrrolidin-1-yl)-6-fluoro-4-oxo-1-phenyl-1,4-dihydroquinoline-3-carboxylic acid]
≤ 1000 nM | Cc1cccnc1OC[C@H]1CC(C)CN1c1cc2c(cc1F)c(=O)c(C(=O)O)cn2-c1ccc(O)cc1 (stereo partly drawn) [Example 7, 6-fluoro-1-(4-hydroxyphenyl)-7-((2R)-4-methyl-2-(((3-methylpyridin-2-yl)oxy)methyl)pyrrolidin-1-yl)-4-oxo-1,4-dihydroquinoline-3-carboxylic acid]
1000 to 10000 nM | CC(Oc1ncccc1Cl)[C@H]1CCCN1c1cc2c(cc1Cl)c(=O)c(C(=O)O)cn2-c1ccccc1 (stereo partly drawn) [Example 8, (R)-6-chloro-7-(2-(1-((3-chloropyridin-2-yl)oxy)ethyl)pyrrolidin-1-yl)-4-oxo-1-phenyl-1,4-dihydroquinoline-3-carboxylic acid]
1000 to 10000 nM | CN(C[C@H]1CCCN1c1cc2c(cc1F)c(=O)c(C(=O)O)cn2-c1ccc(O)cc1)c1ncccc1Cl [Example 10, (R)-7-(2-(((3-chloropyridin-2-yl)(methyl)amino)methyl)pyrrolidin-1-yl)-6-fluoro-1-(4-hydroxyphenyl)-4-oxo-1,4-dihydroquinoline-3-carboxylic acid]

Same assay, conditions: Lin28a-dependent Zcchc11 (Z11) TUTase activity; read-out: Potency Lin28a-dep Z11 IC50

SMILES | IC50
COc1ccc(Cl)c(OC[C@H]2C[C@H](c3cccnc3)CN2c2cc3c(cc2Cl)c(=O)c(C(=O)O)cn3-c2ccc(N3CC(N(C)C)C3)nc2)n1 [Compound 348, 6-chloro-7-((2R,4R)-2-(((3-chloro-6-methoxy-pyridin-2-yl)oxy)methyl)-4-(pyridin-3-yl)pyrrolidin-1-yl)-1-(6-(3-(dimethyl-amino)azetidin-1-yl)pyridin-3-yl)-4-oxo-1,4-dihydro-quinoline-3-carboxylic acid] | ≤ 1000 nM
CN(C)C1CN(c2ccc(-n3cc(C(=O)O)c(=O)c4cc(Cl)c(N5CCC(C)(C)[C@@H]5COc5ncccc5Cl)cc43)cn2)C1 [Compound 351, (R)-6-chloro-7-(2-(((3-chloropyridin-2-yl)oxy)methyl)-3,3-dimethyl-pyrrolidin-1-yl)-1-(6-(3-(dimethyl-amino)azetidin-1-yl)pyridin-3-yl)-4-oxo-1,4-dihydro-quinoline-3-carboxylic acid] | ≤ 1000 nM
COc1ccc(Cl)c(OC[C@H]2CC(c3cn[nH]c3)CN2c2cc3c(cc2F)c(=O)c(C(=O)O)cn3-c2ccc(N3CC(N(C)C)C3)nc2)n1 (stereo partly drawn) [Compound 352, 7-((2R)-2-(((3-chloro-6-methoxy-pyridin-2-yl)oxy)methyl)-4-(1H-pyrazol-4-yl)pyrrolidin-1-yl)-1-(6-(3-(dimethyl-amino)azetidin-1-yl)pyridin-3-yl)-6-fluoro-4-oxo-1,4-dihydro-quinoline-3-carboxylic acid compound with formic acid (1:1)] | ≤ 1000 nM

More lines, now with the values ahead:

IC50 | SMILES
≤ 1000 nM | CN(C)C1CN(c2ccc(-n3cc(C(=O)O)c(=O)c4cc(Cl)c(N5CC6(CC6)C[C@@H]5COc5ncccc5Cl)cc43)cn2)C1 [Compound 347, (R)-6-chloro-7-(6-(((3-chloropyridin-2-yl)oxy)methyl)-5-azaspiro[2.4]heptan-5-yl)-1-(6-(3-(dimethyl-amino)azetidin-1-yl)pyridin-3-yl)-4-oxo-1,4-dihydro-quinoline-3-carboxylic acid]
≤ 1000 nM | CN(C)C1CN(c2ccc(-n3cc(C(=O)O)c(=O)c4cc(Cl)c(N5CC(C6CC6)C[C@@H]5COc5ncccc5Cl)cc43)cn2)C1 (stereo partly drawn) [Compound 349, 6-chloro-7-((2R)-2-(((3-chloropyridin-2-yl)oxy)methyl)-4-cyclopropyl-pyrrolidin-1-yl)-1-(6-(3-(dimethyl-amino)azetidin-1-yl)pyridin-3-yl)-4-oxo-1,4-dihydro-quinoline-3-carboxylic acid]
≤ 1000 nM | CN(C)c1ccc(Cl)c(OC[C@H]2CCCN2c2cc3c(cc2Cl)c(=O)c(C(=O)O)cn3-c2ccc(N3CC(N(C)C)C3)nc2)n1 [Compound 350, (R)-6-chloro-7-(2-(((3-chloro-6-(dimethyl-amino)pyridin-2-yl)oxy)methyl)pyrrolidin-1-yl)-1-(6-(3-(dimethyl-amino)azetidin-1-yl)pyridin-3-yl)-4-oxo-1,4-dihydro-quinoline-3-carboxylic acid]
